Experimental data as given in PubChem BioAssay AID180 (DTP/NCI, 2004).

Test system: BDF1 mice, Adenocarcinoma 755 s.c., tumor weight T/C
Assay: NCI In Vivo Anticancer Drug Screen. Data for tumor model Adenocarcinoma 755 (subcutaneous) in B6D2F1 (BDF1) mice
Conditions: endpoint: mean tumor weight, higher = larger tumour
Method in brief: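 In vivo antitumor screen on a transplantable tumor line. Result equals the measure in compound-treated animals divided by the same measure in vehicle controls.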

[1] = dose: 15.0 mg/kg/injection, schedule: Q01DX011 (ip), vehicle: methylcellulose (MC)
[2] = dose: 31.0 mg/kg/injection, schedule: Q01DX011 (ip), vehicle: methylcellulose (MC)
[3] = dose: 62.0 mg/kg/injection, schedule: Q01DX011 (ip), vehicle: methylcellulose (MC)

## CS(C)=O
dose: 1000.0 mg/kg/injection, schedule: Q01DX011 (ip), vehicle: other
  T/C: 71 % of control
dose: 1000.0 mg/kg/injection, schedule: Q#A X022 (ip), vehicle: other
  T/C: 25 % of control
dose: 1500.0 mg/kg/injection, schedule: Q01DX011 (ip), vehicle: other
  T/C: 115 % of control
dose: 1500.0 mg/kg/injection, schedule: Q#A X022 (ip), vehicle: other
  T/C: 67 % of control

## CCCCCn1cnc2c(SCc3ccccc3)nc(N)nc21
dose: 37.5 mg/kg/injection, schedule: Q01DX011 (ip), vehicle: saline
  T/C: 68 % of control
dose: 75.0 mg/kg/injection, schedule: Q01DX011 (ip), vehicle: saline
  T/C: 78 % of control
dose: 150.0 mg/kg/injection, schedule: Q01DX011 (ip), vehicle: saline
  T/C: 77 % of control

## CSc1ncc(C)c(=O)[nH]1
[1]
  T/C: 113 % of control
[2]
  T/C: 124 % of control
[3]
  T/C: 99 % of control

## C[C@]12CCC(=O)C=C1CC[C@@H]1[C@@H]2C(=O)C[C@@]2(C)[C@H]1CC[C@]2(O)C(=O)COS(=O)(=O)O
dose: 5.0 mg/kg/injection, schedule: Q01DX011 (sc), vehicle: steriod suspending solution
  T/C: 100 % of control
dose: 50.0 mg/kg/injection, schedule: Q01DX011 (sc), vehicle: steriod suspending solution
  T/C: 91 % of control
dose: 100.0 mg/kg/injection, schedule: Q01DX011 (sc), vehicle: steriod suspending solution
  T/C: 57 % of control

## Cn1cnc([N+](=O)[O-])c1Sc1nc(N)nc2nc[nH]c12
dose: 0.04 mg/kg/injection, schedule: Q01DX011 (ip), vehicle: alkali diluted with saline
  T/C: 76 % of control
dose: 0.07 mg/kg/injection, schedule: Q01DX011 (ip), vehicle: methylcellulose (MC)
  T/C: 84 % of control
dose: 0.08 mg/kg/injection, schedule: Q01DX011 (ip), vehicle: alkali diluted with saline
  T/C: 72 % of control
dose: 0.13 mg/kg/injection, schedule: Q01DX011 (ip), vehicle: methylcellulose (MC)
  T/C: 86 % of control
dose: 0.16 mg/kg/injection, schedule: Q01DX011 (ip), vehicle: alkali diluted with saline
  T/C: 102 % of control
dose: 0.2 mg/kg/injection, schedule: Q01DX011 (ip), vehicle: methylcellulose (MC)
  T/C: 30 % of control
dose: 0.25 mg/kg/injection, schedule: Q01DX011 (ip), vehicle: distilled water + alcohol
  T/C: 29 % of control
dose: 0.25 mg/kg/injection, schedule: Q01DX011 (ip), vehicle: methylcellulose (MC)
  T/C: 65 % of control
dose: 0.32 mg/kg/injection, schedule: Q01DX011 (ip), vehicle: alkali diluted with saline
  T/C: 82 % of control
dose: 0.32 mg/kg/injection, schedule: Q01DX011 (ip), vehicle: saline
  T/C: 102 % of control
dose: 0.39 mg/kg/injection, schedule: Q01DX011 (ip), vehicle: methylcellulose (MC)
  T/C: 8 % of control
dose: 0.52 mg/kg/injection, schedule: Q01DX011 (ip), vehicle: distilled water + alcohol
  T/C: 18 % of control
dose: 0.62 mg/kg/injection, schedule: Q01DX011 (oral), vehicle: saline
  T/C: 89 % of control
dose: 0.63 mg/kg/injection, schedule: Q01DX011 (ip), vehicle: alkali diluted with saline
  T/C: 41 % of control
dose: 0.63 mg/kg/injection, schedule: Q01DX011 (ip), vehicle: saline
  T/C: 46 % of control
dose: 0.78 mg/kg/injection, schedule: Q01DX011 (ip), vehicle: methylcellulose (MC)
  T/C: 7 % of control
dose: 1.0 mg/kg/injection, schedule: Q01DX011 (ip), vehicle: methylcellulose (MC)
  T/C: 27 % of control
dose: 1.05 mg/kg/injection, schedule: Q01DX011 (ip), vehicle: distilled water + alcohol
  T/C: 5 % of control
dose: 1.25 mg/kg/injection, schedule: Q01DX011 (ip), vehicle: alkali diluted with saline
  T/C: 2 % of control
dose: 1.25 mg/kg/injection, schedule: Q01DX011 (ip), vehicle: saline
  T/C: 4 % of control
dose: 1.25 mg/kg/injection, schedule: Q01DX011 (oral), vehicle: saline
  T/C: 36 % of control
dose: 1.56 mg/kg/injection, schedule: Q01DX011 (ip), vehicle: methylcellulose (MC)
  T/C: 5 % of control
dose: 2.08 mg/kg/injection, schedule: Q01DX011 (ip), vehicle: distilled water + alcohol
  T/C: 6 % of control
dose: 2.5 mg/kg/injection, schedule: Q01DX011 (ip), vehicle: alkali diluted with saline
  T/C: 1 % of control
dose: 2.5 mg/kg/injection, schedule: Q01DX011 (ip), vehicle: methylcellulose (MC)
  T/C: 4 % of control
dose: 2.5 mg/kg/injection, schedule: Q01DX011 (ip), vehicle: saline
  T/C: 3 % of control
dose: 2.5 mg/kg/injection, schedule: Q01DX011 (oral), vehicle: saline
  T/C: 8 % of control
dose: 3.12 mg/kg/injection, schedule: Q01DX011 (ip), vehicle: methylcellulose (MC)
  T/C: 2 % of control
dose: 4.19 mg/kg/injection, schedule: Q01DX011 (ip), vehicle: distilled water + alcohol
  T/C: 2 % of control
dose: 5.0 mg/kg/injection, schedule: Q01DX011 (ip), vehicle: saline
  T/C: 1 % of control
dose: 5.0 mg/kg/injection, schedule: Q01DX011 (oral), vehicle: saline
  T/C: 5 % of control
dose: 6.25 mg/kg/injection, schedule: Q01DX011 (ip), vehicle: methylcellulose (MC)
  T/C: 2 % of control
dose: 10.0 mg/kg/injection, schedule: Q01DX011 (ip), vehicle: saline
  T/C: 1 % of control
dose: 12.5 mg/kg/injection, schedule: Q01DX011 (ip), vehicle: methylcellulose (MC)
  T/C: 1 % of control

## O=C(O)C(O)C(F)(F)F (stereo not given)
dose: 31.0 mg/kg/injection, schedule: Q01DX011 (ip), vehicle: other
  T/C: 89 % of control
dose: 62.5 mg/kg/injection, schedule: Q01DX011 (ip), vehicle: other
  T/C: 82 % of control
dose: 125.0 mg/kg/injection, schedule: Q01DX011 (ip), vehicle: other
  T/C: 111 % of control
dose: 250.0 mg/kg/injection, schedule: Q01DX011 (ip), vehicle: other
  T/C: 46 % of control

## C=C(C)C(=O)OCC1CO1 (stereo not given)
dose: 100.0 mg/kg/injection, schedule: Q01DX011 (ip), vehicle: water
  T/C: 90 % of control
dose: 200.0 mg/kg/injection, schedule: Q01DX006 (ip), vehicle: water
  T/C: 95 % of control
dose: 200.0 mg/kg/injection, schedule: Q01DX011 (ip), vehicle: other
  T/C: 102 % of control
dose: 200.0 mg/kg/injection, schedule: Q01DX011 (ip), vehicle: water
  T/C: 77 % of control
dose: 300.0 mg/kg/injection, schedule: Q01DX006 (ip), vehicle: water
  T/C: 86 % of control

## CNc1ncnc2c1cnn2C
dose: 5.0 mg/kg/injection, schedule: Q01DX011 (ip), vehicle: methylcellulose (MC)
  T/C: 65 % of control
dose: 10.0 mg/kg/injection, schedule: Q01DX011 (ip), vehicle: methylcellulose (MC)
  T/C: 55 % of control
dose: 20.0 mg/kg/injection, schedule: Q01DX011 (ip), vehicle: methylcellulose (MC)
  T/C: 29 % of control

## C[C@]1(O)CC[C@H]2[C@@H]3CC[C@@H]4C[C@H](O)CC[C@]4(C)[C@@]3(F)[C@@H](O)C[C@@]21C
dose: 25.0 mg/kg/injection, schedule: Q01DX011 (sc), vehicle: steriod suspending solution
  T/C: 73 % of control
dose: 200.0 mg/kg/injection, schedule: Q01DX011 (sc), vehicle: steriod suspending solution
  T/C: 90 % of control
dose: 400.0 mg/kg/injection, schedule: Q01DX011 (sc), vehicle: steriod suspending solution
  T/C: 87 % of control

## C1CN1P1(N2CC2)=NP(N2CC2)(N2CC2)=NP(N2CC2)(N2CC2)=NP(N2CC2)(N2CC2)=N1
dose: 0.4 mg/kg/injection, schedule: Q01DX011 (ip), vehicle: carboxymethylcellulose (CMC)
  T/C: 48 % of control
dose: 0.4 mg/kg/injection, schedule: Q02DX011 (ip), vehicle: carboxymethylcellulose (CMC)
  T/C: 96 % of control
dose: 0.8 mg/kg/injection, schedule: Q01DX011 (ip), vehicle: carboxymethylcellulose (CMC)
  T/C: 22 % of control
dose: 0.8 mg/kg/injection, schedule: Q02DX011 (ip), vehicle: carboxymethylcellulose (CMC)
  T/C: 54 % of control
dose: 1.5 mg/kg/injection, schedule: Q01DX011 (ip), vehicle: methylcellulose (MC)
  T/C: 45 % of control
dose: 1.5 mg/kg/injection, schedule: Q02DX006 (ip), vehicle: carboxymethylcellulose (CMC)
  T/C: 50 % of control
dose: 1.6 mg/kg/injection, schedule: Q01DX011 (ip), vehicle: carboxymethylcellulose (CMC)
  T/C: 6 % of control
dose: 1.6 mg/kg/injection, schedule: Q02DX011 (ip), vehicle: carboxymethylcellulose (CMC)
  T/C: 31 % of control
dose: 3.0 mg/kg/injection, schedule: Q01DX011 (ip), vehicle: methylcellulose (MC)
  T/C: 13 % of control
dose: 3.0 mg/kg/injection, schedule: Q02DX006 (ip), vehicle: carboxymethylcellulose (CMC)
  T/C: 10 % of control
dose: 3.2 mg/kg/injection, schedule: Q02DX011 (ip), vehicle: carboxymethylcellulose (CMC)
  T/C: 1 % of control
dose: 6.0 mg/kg/injection, schedule: Q02DX006 (ip), vehicle: carboxymethylcellulose (CMC)
  T/C: 1 % of control

## CC(C)CN1CC(C)C(=O)N(c2ccccc2)C1=S (stereo not given)
[1]
  T/C: 51 % of control
[2]
  T/C: 89 % of control
[3]
  T/C: 79 % of control
dose: 125.0 mg/kg/injection, schedule: Q01DX011 (ip), vehicle: methylcellulose (MC)
  T/C: 57 % of control

## COC(C(O)C(O)C(O)C(O)CO)n1cnc2cncnc21 (stereo not given)
dose: 19.0 mg/kg/injection, schedule: Q01DX011 (ip), vehicle: carboxymethylcellulose (CMC)
  T/C: 115 % of control
dose: 57.0 mg/kg/injection, schedule: Q01DX011 (ip), vehicle: carboxymethylcellulose (CMC)
  T/C: 152 % of control
